Where two headings read alike, the source gives them in different places.
Assays:
human plasma [1] = assay: APTT clotting time, human plasma; format: biochemical
Excerpt: (§1) The term “APTT” as used herein means “activated partial thromboplastin times” which is intended to refer to the time elapsed between the formation of an assay solution and the detection of clot formation in the assay solution with use of an APTT assay, i.e., an assay employing an intrinsic pathway activator, such as micronized silica, and a phospholipid component of a thromboplastin reagent (without tissue factor protein) for evaluating coagulation associated with the intrinsic pathway.
(§2) PT and APTT clotting times were determined as described in Balasubramanian et al., J. Med. Chem., Vol. 36 (1993), at pp. 300-03, incorporated herein by reference. The whole blood aggregation response of rat platelets to collagen was determined using the impedance procedure for a Model 560-CA Chrono-Log aggregometer (Havertown, Pa.).

human factor Xa = molecular target: T1, human factor Xa (Homo sapiens, UniProt P00742); assay: Selectivity assay factor Xa; format: biochemical; conditions: Table 3; read-out: IC50 (μM) FXa
T1 construct: Factor IXa then converts Factor X to Factor Xa; purchased Kabi Vitrum

[2] = molecular target: T2, Recombinant tissue plasminogen activator (Homo sapiens, UniProt P00750); assay: Selectivity assay tissue plasminogen activator; format: biochemical; conditions: Table 3
T2 construct: purchased Genentech

human plasma [3] = assay: PT clotting time, human plasma; format: biochemical; conditions: highest concentration tested 100 μM
Protocol: The term “PT” time as used herein refers to prothrombin times which is intended to refer to the time elapsed between formation of an assay solution and detection of clot formation in the assay solution with use of a PT assay, i.e., an assay employing thromboplastin reagents that are used for evaluating blood coagulation associated with the extrinsic pathway.
as §2

rat plasma = assay: APTT clotting time, rat plasma; format: biochemical
Excerpt: as §1, §2

[4] = test system: rat plasma (ex vivo APTT); assay: Ex vivo clotting time APTT; format: in vivo; conditions: for APTT Increase (X Control): average over 15-90 min
Protocol: Ex Vivo Clotting Times Ex vivo clotting time assays were used to determine the level of anticoagulation achieved in the thrombosis and bleeding time procedures, described above. A small organic compound for inhibiting Factor XIa was administered at doses (mg/kg+mg/kg/hr) of 0.5+0.5 (n=3), 2+2 (n=4), 6+6 (n=3), 12+12 (n=3) and 24+24 (n=10). Carotid artery blood (0.6 mL drawn into 1/10 volume of 3.8% Na-citrate) was sampled before (0 min control) and at 5, 15, 30, 60 and 90 min after the start of the compound infusion. The APTT was determined in freshly prepared plasma from each sample using the standard procedure for Dade Actin FSL reagent (Baxter Healthcare Corp., Miami, Fla.). The PT was determined in some animals from the 6+6 (n=3), 12+12 (n=3) and 24+24 (n=2) dose groups using Dade Thromboplastin●C reagent.
Plasma was sampled before (0 min control) and after the infusion, at intervals of 5, 15, 30, 60 and 90 min after initiating the infusion. Average APTT increases over the 15-90 min period, an interval most applicable to thrombosis and bleeding time protocols, were calculated. Control APTT values averaged 19.9±1.3 seconds overall. The PT was unaltered as expected from in vitro results. […] The range of efficacious doses in venous and arterial thrombosis (2+2, 6+6, 12+12; mg/kg+mg/kg/hr) produced an APTT increase of about 2.8 times control.

FXIIa = molecular target: T3, FXIIa (Homo sapiens, UniProt P00748); assay: Selectivity assay FXIIa; format: biochemical; conditions: Table 3
T3 construct: purchased American Diagnostica

Human FXIa = molecular target: T4, Human FXIa (Homo sapiens, UniProt P03951); assay: FXIa enzymatic activity (chromogenic S-2366; fluorescent assay for high potency); format: biochemical
T4 construct: purchased Enzyme Research Labs or Haematologic Technologies Inc
Protocol: Human FXIa activity (Enzyme Research Labs or Haematologic Technologies Inc.) was measured at room temperature in 96 well microtiter plates. The enzyme was incubated with drug for 3 minutes at an enzyme concentration of 0.5 nM in 145 mM NaCl, 5 mM KCl, 1 mg/mL PEG 8000,30 mM HEPES (pH 7.4). After the three minute incubation, 100 μM substrate, S-2366, (L-Pyroglut-Pro-Arg-pNA, Diapharma Group, Inc.) was added and the enzyme velocity was measured using a Molecular Devices Spectro Max Plus (405 nm wavelength) in kinetic mode and analyzed using SOFTmax Pro (ver 3.0) software. For routine compound evaluation, the fraction of control activity (FCA) was plotted as a function of the inhibitor concentration (I), and the curve was fit to the equation FCA /(1+[I]/IC50) to determine the IC50.
A fluorescent assay was performed under similar conditions to evaluate FXIa activity of compounds with high potency (IC50<10 nM). A different substrate (D-Ile-Pro-Arg-AFC.2TFA) and a different concentration of enzyme (0.043 nM) was used. The enzyme velocity was measured using a Molecular Devices fMax fluorescent plate reader (400 nm excitation, 505 nm emission).

T4 sequence (P03951 388-625 limits assumed): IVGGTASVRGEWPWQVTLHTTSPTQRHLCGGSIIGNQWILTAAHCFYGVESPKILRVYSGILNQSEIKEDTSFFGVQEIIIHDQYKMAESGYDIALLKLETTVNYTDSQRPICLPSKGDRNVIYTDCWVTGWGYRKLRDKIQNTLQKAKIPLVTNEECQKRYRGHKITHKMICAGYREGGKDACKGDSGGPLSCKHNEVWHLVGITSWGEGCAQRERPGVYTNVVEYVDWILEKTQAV
T4 sequence (P03951 19-387 partner limits assumed): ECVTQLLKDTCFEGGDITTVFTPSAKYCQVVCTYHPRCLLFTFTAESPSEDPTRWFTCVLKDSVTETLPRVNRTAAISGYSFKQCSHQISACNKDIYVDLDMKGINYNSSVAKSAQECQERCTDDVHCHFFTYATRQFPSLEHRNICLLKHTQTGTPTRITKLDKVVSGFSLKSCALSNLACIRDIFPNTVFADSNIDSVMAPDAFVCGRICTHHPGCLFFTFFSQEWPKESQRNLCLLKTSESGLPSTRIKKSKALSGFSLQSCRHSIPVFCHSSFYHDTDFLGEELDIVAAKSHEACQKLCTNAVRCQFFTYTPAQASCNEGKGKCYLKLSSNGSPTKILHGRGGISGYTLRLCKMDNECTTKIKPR
T3 sequence (P00748 373-615 limits assumed, other chains not shown): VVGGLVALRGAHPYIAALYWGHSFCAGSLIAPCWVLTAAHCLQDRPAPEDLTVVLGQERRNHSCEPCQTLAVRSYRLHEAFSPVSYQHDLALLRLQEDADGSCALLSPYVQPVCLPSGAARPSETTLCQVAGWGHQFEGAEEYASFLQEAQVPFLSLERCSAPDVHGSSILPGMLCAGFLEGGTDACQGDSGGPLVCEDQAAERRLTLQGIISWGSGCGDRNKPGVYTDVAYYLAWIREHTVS
T1 sequence (P00742 235-488 limits assumed): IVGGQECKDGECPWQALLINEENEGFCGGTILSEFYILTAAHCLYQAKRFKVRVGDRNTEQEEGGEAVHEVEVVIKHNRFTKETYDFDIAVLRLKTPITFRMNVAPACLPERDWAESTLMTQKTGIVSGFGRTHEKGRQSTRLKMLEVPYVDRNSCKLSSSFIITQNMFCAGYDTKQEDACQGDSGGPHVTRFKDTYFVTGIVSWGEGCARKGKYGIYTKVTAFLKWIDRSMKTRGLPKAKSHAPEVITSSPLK
T1 sequence (P00742 41-179 partner limits assumed): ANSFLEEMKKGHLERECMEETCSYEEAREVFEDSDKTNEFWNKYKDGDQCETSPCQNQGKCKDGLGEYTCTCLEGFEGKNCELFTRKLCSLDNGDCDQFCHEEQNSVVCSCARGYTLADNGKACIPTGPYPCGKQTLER
T2 sequence (P00750 36-562): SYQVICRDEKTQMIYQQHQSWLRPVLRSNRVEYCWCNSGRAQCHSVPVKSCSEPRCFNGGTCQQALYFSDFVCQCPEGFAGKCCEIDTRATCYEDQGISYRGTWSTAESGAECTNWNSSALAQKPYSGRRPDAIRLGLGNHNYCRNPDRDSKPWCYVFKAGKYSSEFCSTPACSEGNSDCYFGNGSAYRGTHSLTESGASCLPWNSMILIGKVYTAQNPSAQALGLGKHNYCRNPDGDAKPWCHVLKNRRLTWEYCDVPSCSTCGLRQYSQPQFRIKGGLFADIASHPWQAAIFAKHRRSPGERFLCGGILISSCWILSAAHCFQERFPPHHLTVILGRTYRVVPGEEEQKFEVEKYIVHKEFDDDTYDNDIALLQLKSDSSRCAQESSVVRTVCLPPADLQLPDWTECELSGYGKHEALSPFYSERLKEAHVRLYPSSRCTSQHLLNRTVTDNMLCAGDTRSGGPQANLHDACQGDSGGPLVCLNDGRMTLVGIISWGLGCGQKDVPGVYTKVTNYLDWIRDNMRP

IC50 (human factor Xa): > 33 µM | IC50 [2]: > 33 µM | IC50 (FXIIa): > 33 µM | IC50 (Human FXIa; Table 1, Factor XIa, approximate, read-out: IC50(≅)): ~0.0028 µM | IC50 (Human FXIa; Table 3, read-out: IC50 (μM) FXIa): 0.0028 µM | times more active than the FXa inhibitor for inhibiting Factor XIa (Human FXIa; from Table 3 IC50 values): more than 10,000 times | times more active than the thrombin inhibitor (compound 16A) for inhibiting Factor XIa (Human FXIa; from Table 3 IC50 values): greater than 2,000 times
SMILES: CC(C)(C)NC(=O)N1CCN(C(=O)N2C(=O)[C@H](CCCNC(=N)N)[C@H]2C(=O)O)CC1 [Example 4]
Clotting time APTT (human), concentration that doubles clotting time (human plasma [1]): 0.6 µM | Clotting time PT (human), concentration that doubles clotting time (human plasma [3]): >100 µM | Clotting time APTT (rat), concentration that doubles clotting time (rat plasma): 2.1 µM | APTT Increase (X Control) ([4]; dose 0.5 + 0.5 mg/kg + mg/kg/hr): 1.57 ± 0.22 X Control | APTT Increase (X Control) ([4]; dose 2 + 2 mg/kg + mg/kg/hr): 2.81 ± 0.21 X Control | APTT Increase (X Control) ([4]; dose 6 + 6 mg/kg + mg/kg/hr): 2.73 ± 0.19 X Control | APTT Increase (X Control) ([4]; dose 12 + 12 mg/kg + mg/kg/hr): 2.79 ± 0.26 X Control | APTT Increase (X Control) ([4]; dose 24 + 24 mg/kg + mg/kg/hr): 3.29 ± 0.85 X Control | APTT increase ([4]; range of efficacious doses 2+2, 6+6, 12+12 mg/kg+mg/kg/hr): about 2.8 times control

— patent US20040180855A1, “Methods of treating thrombosis with reduced risk of increased bleeding times” (priority 2003, published 2004)
